US9139615B2, “High-affinity, dimeric inhibitors of PSD-95 as efficient neuroprotectants against ischemic brain damage and for treatment of pain” (University of Copenhagen, priority 2011, dated 2015)
Entries after “also recorded” stand apart in the source; their conditions may differ.

What was measured:
Type in all cases: in vivo, mice
[1] = test system: motor performance; experiment: Rotarod test of motor performance (side effects); details: 0.1 mg/kg, at 15, 30, 45 and 60 min
Description: Motor function was evaluated using an accelerating rotarod (MedAssociates, Inc., VT, USA). The rotarod (3.2 cm diameter) speed was increased from 4 to 40 rpm over a 300 s period with the minimum time possible to spend on the rod designated as 0 s and the maximum cut-off time set at 310 s. Each mouse was tested immediately prior to drug treatment (t=0), and again 15, 30, 45 and 60 minutes after drug treatment. When an animal fell off the rotating drum, a photobeam was automatically broken to record the amount of time spent on the rotating rod.
Motor performance: In the rotarod test, treatment effect on motor coordination was analysed using a two-way RM ANOVA, with treatment as the independent factor and time as repeated measure. Planned comparisons procedure was used to assess treatment effects over time.

[2] = test system: CFA-induced mechanical allodynia/hyperalgesia; experiment: Complete Freund's adjuvant (CFA) inflammatory pain, von Frey test; details: for CFA-induced hyperalgesia: 0.1 mg/kg, given simultaneously with CFA
[3] = test system: long-term reference memory; experiment: Social transmission of food preference (STFP) test; details: 0.1 mg/kg (dose reducing hyperalgesia)
Description: STFP was conducted in two phases. […] A minimum of 2 and a maximum of 5 licking/sniffing interactions were set as criteria for appropriate acquisition of the odour cue. […] Second phase: following a 24-hour retention interval, the observer mice were placed individually in cages containing two trays of crushed food scented with cinnamon or cocoa, respectively. The amount eaten from the cued food over the novel food is taken as an index of memory for the previously cued food. […] Yet, experiments were designed in a balanced fashion to ensure that an equal number of mice within each treatment group were cued with cinnamon and cocoa, respectively.
(§1) Cognitive data: In the social transmission of food preference test, the preference for the cued food was expressed as a discrimination index, DI=(cued−novel)/(cued+novel). In the modified Y-maze, the preference for the novel arm was expressed as a discrimination index, DI=(time in novel−time in familiar)/(time in novel+time in familiar). STFP and Y-maze data were analysed by one-way ANOVA followed by Planned Comparisons was performed to assess treatment effects on the discrimination index.

[4] = test system: attention; experiment: Modified Y-maze test of attention; details: 0.05 and 0.1 mg/kg
Description: Testing was carried out in a clear Plexiglass maze composed of 2 perpendicular arms connected to a runway. The 2 arms (available for exploration) and runway were 50 cm long and 8 cm wide, surrounded by clear Plexi-glass walls 30 cm high. Each arm met at a central platform equipped with black removable partitions, enabling arms to be opened and closed as desired. The whole maze was enclosed in a triangular black Plexiglass box (1×1×1 m). The walls of this outer box surrounding each exploration arm were covered with distinct optical cues, e.g., white horizontal or vertical lines. […] The cumulative time spent in each arm was recorded during this test session by an automated video tracking system (Ethovision, Noldus). A discrimination index (DI) was calculated for each mouse, defined as the difference in time spent in the novel and the familiar arm divided by the total time spent in the novel and the familiar arm during phase 2 testing, i.e. DI=(novel−familiar)/(novel+familiar).
as §1, with “STFP and Y-maze data were analysed by one-way ANOVA followed by Planned Comparisons was performed to assess treatment effects on the discrimination index.” left out

## C[C@]12N[C@H](Cc3ccccc31)c1ccccc12 [MK-801]
[1]
  motor performance, time on the rotarod: motor deficits; also recorded: significantly decreased time on the rotarod
[2]; after 1 hour
  CFA-induced hyperalgesia: significantly reversed the CFA-induced hyperalgesia
[2]; after 24 hours
  CFA-induced hyperalgesia: significant reversal was still observed
[2]; administered concurrently with CFA, 1 hour and 24 hours after treatment
  CFA-induced mechanical hyperalgesia: prevented the development of CFA-induced mechanical hyperalgesia
[3]
  discrimination index, social transmission of food preference: induced cognitive deficits; also recorded: significantly reduced the discrimination index
[4]
  discrimination index, modified Y-maze: induced cognitive deficits; also recorded: discrimination index was reduced
